Experiments:
Assay type in all cases: cell-based, Sprague-Dawley rat
hippocampal slice [1] = assay: Network level evoked response to single pulse Schaffer commissural stimulation during carbachol-induced rhythms, multi-electrode dish
Text: (§1) Procedures for the preparation of the recently introduced Multi-Electrode Dish (Panasonic: MED probe) are described by Oka et al., J Neurosci Methods 93: 61-67 (1999). The device has an array of 64 planar microelectrodes, each having a size of 50×50 μm, arranged in an 8 by 8 pattern. Probes used in the experiments described below were medium arrays with 300 μm interelectrode spacing (Panasonic: MED-P530AP).
For sufficient adhesion of the slice to the probe, the surface of the MED probe was treated with 0.1% polyethylenimine (Sigma: P-3143) in 25 mM borate buffer, pH 8.4, for 8 hours at room temperature. The probe surface was rinsed 3 times with sterile distilled water. The probe (chamber) was then filled with DMEM/F-12 mixed medium, containing 10% fetal bovine serum (GIBCO: 16141-079) and 10% horse serum (GIBCO: 16050-122), for at least 1 hour at 37° C. DMEM/F-12 mixed medium is a 1:1 mixture of Dulbecco's Modified Eagle's Medium and Ham's F-12 (GIBCO: D/F-12 medium, 12400-024), supplemented with N2 supplement (GIBCO: 17502-014) and hydrocortisone (20 nM, Sigma, H0888).
(§2) A 17-25 day old Sprague-Dawley rat was sacrificed by decapitation after anesthesia using halothane (2-Bromo-2-chloro-1,1,1-trifluoroethane, Sigma: B4388), and the whole brain was removed. The brain was immediately soaked in ice-cold, oxygenated preparation buffer of the following composition (in mM): 124 NaCl, 26 NaHCO3, 10 glucose, 3 KCl, 1.25 NaH2PO4, 1.5 CaCl2, 0.5 MgSO4, for approximately 2 minutes. Appropriate portions of the brain were trimmed and placed on the ice-cold stage of a vibrating tissue slicer (Leica: VT-1000S). The stage was immediately filled with both oxygenated and frozen preparation buffers. The thickness of each tissue slice was 350 μm. Each slice was gently taken off the blade using a blunt-end pipette, and immediately soaked in oxygenated preparation buffer for at least 1 hour at room temperature. A slice was then placed on the center of the MED probe, positioned to cover the 8×8 array. After positioning the slice, the MED probe was placed directly in a box filled with 95% O2 and 5% CO2 and allowed to recover and adhere at 32° C. for 1 hour.
(§3) During electrophysiological recording, the slices on the MED probe were placed in a small CO2 incubator (Yamato: model IC400) at 32° C. The slices remained on the MED probe, which was attached to a recording interface, and a moisturized 95% O2 and 5% CO2 gas mixture was blown from above. In this condition, responses were recorded for more than 2 hours.
Carbachol was obtained from Sigma. […]
(§4) Spontaneous and evoked field potentials at all 64 sites were recorded simultaneously with the multi-channel recording system (Panasonic: MED64 system) at a 20 kHz sampling rate. […]

hippocampal slice [2] = assay: Carbachol-induced beta rhythms in hippocampal tissue (64-electrode recording, FFT); settings: FIG. 2
Text: as §1
A 17-25 day old Sprague-Dawley rat was sacrificed by decapitation after anesthesia using halothane (2-Bromo-2-chloro-1,1,1-trifluoroethane, Sigma: B4388), and the whole brain was removed. The brain was immediately soaked in ice-cold, oxygenated preparation buffer of the following composition (in mM): 124 NaCl, 26 NaHCO3, 10 glucose, 3 KCl, 1.25 NaH2PO4, 1.5 CaCl2, 0.5 MgSO4, for approximately 2 minutes. Appropriate portions of the brain were trimmed and placed on the ice-cold stage of a vibrating tissue slicer (Leica: VT-1000S). […]
During electrophysiological recording, the slices on the MED probe were placed in a small CO2 incubator (Yamato: model IC400) at 32° C. […] In this condition, responses were recorded for more than 2 hours. […]
as §4

hippocampal slice [3] = assay: Evoked responses following Schaffer collateral stimulation in presence and absence of carbachol (field potentials, current source density)
Protocol: as §2, §3
Carbachol was obtained from Sigma. A carbachol solution was applied to the neuronal samples at known concentrations of either 25 or 50 μM. The lower concentration was used in all except two cases. […] Carbachol solutions were prepared daily from frozen aliquots.
Spontaneous and evoked field potentials at all 64 sites were recorded simultaneously with the multi-channel recording system (Panasonic: MED64 system) at a 20 kHz sampling rate. In the case of the evoked response, one or more than two microelectrodes out of the 64 available were chosen for stimulating. Bipolar constant current pulses (20 to 40 μA, 0.1 msec) were produced by the data acquisition software through the isolator. The stimulating microelectrodes were selected by the 64 switchbox.
The method of continuous, two-dimensional current source density employed has been previously described (Shimono et al., supra). The 2-dimensional array of electrodes allows for simultaneous estimation of current flows in any direction within the plane of the slice. The data was low-pass filtered at 100 Hz and spatially smoothed by a 3×3-weighted average kernel (0 1/8 0, 1/8 1/2 1/8, and 0 1/8 0). […] A limitation of the technique is that only large spatial patterns, with radii≧one-half of the interelectrode distance, can be accurately resolved. Additionally, low-pass filtering removes high-frequency data, limiting the amount of fine detail that can be observed.

[4] = 100 μM heptachlor, Schaffer commissural stimulation, FIG. 8
[5] = CA1 apical dendrites, presence of carbachol
[6] = single pulse stimulation with carbachol, eight slices

| Structure (SMILES) | depolarizing phase of the slow component of the waveform (hippocampal slice [1]; 100 μM heptachlor, FIG. 8) | fast component, corresponding to the traditional evoked response (hippocampal slice [1]; [4]) | slow component of the network complex evoked response (hippocampal slice [1]; [4]) | network level evoked response to single pulse Schaffer commissural stimulation upon infusion (hippocampal slice [1]; figure legends FIGS. 8-11) | dominant frequency of rhythms (normalized power spectra, all 64 electrodes) (hippocampal slice [2]; 25 μM carbachol) | stability of rhythms (hippocampal slice [2]; after carbachol infusion) | intensity of activity (current source density) (hippocampal slice [3]; 25 μM carbachol vs without carbachol, 10 ms after stimulation) | spread of activity (current source density) (hippocampal slice [3]; 25 μM carbachol vs without carbachol, 10 ms after stimulation, particularly field CA3) | start of slow negative going component after stimulation (hippocampal slice [3]; [5]) [ms] | start of slow negative going component after the initial response (hippocampal slice [3]; [5]) | return to baseline after stimulation (hippocampal slice [3]; CA1 stratum radiatum and oriens, carbachol-induced beta waves, FIG. 4) [ms] | return to baseline of positive-going potential (hippocampal slice [3]; CA3 basal dendritic field, carbachol-driven beta rhythms, FIG. 5) | stimulation trials eliciting a sustained network response (hippocampal slice [3]; Schaffer collateral stimulation in the presence of cholinergic rhythms) | frequency of bursts of spikes accompanying the first carbachol dependent slow potential (hippocampal slice [3]; field CA3) | recordings with responses similar to the control responses (hippocampal slice [3]; [6]) | traces with bursts of spikes in CA3 stratum pyramidale and prominent after potentials in CA1 and CA3 (hippocampal slice [3]; [6]) |
| --- | --- | --- | --- | --- | --- | --- | --- | --- | --- | --- | --- | --- | --- | --- | --- | --- |
| ClC1=C(Cl)C2(Cl)C3C(Cl)C=CC3C1(Cl)C2(Cl)Cl (stereo not shown) [heptachlor] | complete elimination | not changed | changed dramatically | changes |  |  |  |  |  |  |  |  |  |  |  |  |
| C[N+](C)(C)CCOC(N)=O [carbachol] |  |  |  |  | in the beta range | stable for over two hours | markedly increased | far greater | 25 | about 10 msec | 140 | approximately 125 ms | approximately 70% | 100-200 Hz | 16 of 53 | 37 of 53 |

From patent publication US20030091980A1, “Detection and characterization of psychoactives using analysis of network level physiological responses in a neuronal sample” (priority 2001, published 2003)
